Source: US20220334133A1, “METHODS AND COMPOUNDS MODIFYING MITOCHONDRIAL FUNCTION” (The Board of Trusteesof the Leland Stanford Junior …, priority 2019, published 2022)
Where a name gives a salt, the structure may show the parent alone.

system: Fibroblast cells; test: Toxicity observed in hit confirmation; type: cell-based, human; conditions: highest screening concentration, sporadic PD fibroblast line
Protocol: Fibroblast cells were plated in 6-well plates (VWR, 10861-554) on coverslips (Fisher scientific, 22-293232) at 400.000 cells/well and plates were incubated at 37° C., 5% CO2 for 24 hrs. Next, newly ordered chemical compounds dissolved in DMSO were added at defined concentrations and plates were incubated at 37° C./5% CO2 for 10 hrs. Then, FCCP (final concentration of 20 μM, Carbonyl cyanide 4-(trifluoromethoxy)phenylhydrazone, Sigma-Aldrich, C2920) in cell media was added to defined wells and plates were incubated at 37° C., 5% CO2 for another 14 hrs. Cells were fixed with ice-cold 90% methanol (Fisher, 482332) for 20 min at −20° C., incubated with blocking buffer (10% Normal Goat Serum (NGS) (ThermoFisher, 50062Z), 0.5% BSA (ThermoFisher, BP1600), 0.2% Triton X-100 (ThermoFisher, T8787)) at 25° C. for 15 min and incubated with anti-Miro1 (Sigma-Aldrich, HPA0101687) at 1:100 in blocking buffer O/N at 4° C. […]

**Q.** `O=C(O)CCC(=O)c1ccc(-c2ccccc2)cc1` [Fenbufen] was tested. Which Toxicity did it give?
**A.** Its Toxicity is “appeared toxic”.

system: Miro1; test: Hit confirmation: immunocytochemistry and confocal microscopy of Miro1 in sporadic PD fibroblasts; type: cell-based, human; conditions: DMSO instead of FCCP, with compound at highest screening concentration; sporadic PD line; at least 4 biological replicates
Protocol: Fibroblast cells were plated in 6-well plates (VWR, 10861-554) on coverslips (Fisher scientific, 22-293232) at 400.000 cells/well and plates were incubated at 37° C., 5% CO2 for 24 hrs. Next, newly ordered chemical compounds dissolved in DMSO were added at defined concentrations and plates were incubated at 37° C./5% CO2 for 10 hrs. Then, FCCP (final concentration of 20 μM, Carbonyl cyanide 4-(trifluoromethoxy)phenylhydrazone, Sigma-Aldrich, C2920) in cell media was added to defined wells and plates were incubated at 37° C., 5% CO2 for another 14 hrs. Cells were fixed with ice-cold 90% methanol (Fisher, 482332) for 20 min at −20° C., incubated with blocking buffer (10% Normal Goat Serum (NGS) (ThermoFisher, 50062Z), 0.5% BSA (ThermoFisher, BP1600), 0.2% Triton X-100 (ThermoFisher, T8787)) at 25° C. for 15 min and incubated with anti-Miro1 (Sigma-Aldrich, HPA0101687) at 1:100 in blocking buffer O/N at 4° C. Samples were washed three times with 1×PBS (ThermoFisher, 10010-049), incubated with goat anti-Rabbit IgG (H+L) Cross-Adsorbed, Alexa Fluor 488 (ThermoFisher, A11008) at 1:500 in blocking buffer at 25° C. for 2 hrs and washed again three times with lx PBS, and finally samples were mounted with ProLong™ Glass Antifade Mountant with NucBlue™ Stain (hard-setting, Thermofisher, P36983) on glass slides and allowed to cure O/N. Samples were imaged at 25° C. with a 20×/N.A.0.60 oil Plan-Apochromat objective on a Leica SPE laser scanning confocal microscope (JH Technologies), with identical imaging parameters among different genotypes. Images were processed with ImageJ (Ver. 1.48, NIH) using the Intensity Ratio Nuclei Cytoplasm Tool (http://dev.mri.cnrs.fr/projects/imagej-macros/wiki/Intensity_Ratio_Nuclei_Cytoplasm_Tool), and average cytoplasmic intensity (the average intensity in the cytoplasm area) was plotted.
To reduce experimental bias such as the freshness the compounds, experimental reagents, and imaging devices, the 14 hits identified in the high-throughput screening were verified individually . The 14 compounds were tested at their highest screening concentrations with at least 4 biological replicates, using the same sporadic PD line. […] Samples were imaged with identical settings under the confocal microscope, and negative controls without primary antibodies yielded no signals under the imaging settings.

**Q.** Which “Basal Miro1 levels (without mitochondrial depolarization)” value does the source give for `COC(=O)C1=C(C)NC(C)=C(C(=O)OC2CCCN(Cc3ccccc3)C2)C1c1cccc([N+](=O)[O-])c1` (stereo not drawn) [Benidipine HCl] here?
**A.** Its value is “no impact on basal Miro1 levels”.

**Q.** `CN(CCCN1c2ccccc2CCc2ccccc21)CC(=O)c1ccc(Cl)cc1` [Lofepramine] was tested. Which “Basal Miro1 levels (without mitochondrial depolarization)” value did it give?
**A.** Its value is “already reduced Miro1 protein at baseline”.

**Q.** How did the “Basal Miro1 levels (without mitochondrial depolarization)” value turn out when `CC[C@H](C)C(=O)O[C@H]1C[C@H](O)C=C2C=C[C@H](C)[C@H](CC[C@@H](O)C[C@@H](O)CC(=O)O)[C@H]21` [Pravastatin Sodium] was run?
**A.** Its value is “already reduced Miro1 protein at baseline”.

**Q.** How did the “Basal Miro1 levels (without mitochondrial depolarization)” value turn out when `CN(C)CCC[C@@]1(c2ccc(F)cc2)OCc2cc(C#N)ccc21` [Escitalopram Oxalate] was run?
**A.** The value was “already reduced Miro1 protein at baseline”.

system: Miro1; test: High-throughput screening assay for Miro1 reduction after FCCP (immunostaining, 384-well); type: cell-based, human; conditions: Table 1A hits; 10 μM tested; PD patient fibroblasts, following FCCP treatment (20 μM, 14 hr)
Protocol: Human dermal primary fibroblasts isolated from a PD patient (ND33424) and a healthy control (ND36091) were cultured in cell media DMEM (ThermoFisher, 11995-065) supplemented with 10% fetal bovine serum (Gemini Bio-Products, 900-108, heat-inactivated), 1×Anti Anti (ThermoFisher, 15240096), and 1×GlutaMax (ThermoFisher, 35050061) maintained in a 37° C., 5% CO2 incubator with humidified atmosphere.
Fibroblast cells were plated onto clear-bottomed/black-walled 384-well plates (EK-30091, E&K Scientific, Santa Clara, Calif.) at 2000 cells/well with Matrix Wellmate dispenser (Thermo Scientific, Sunnyvale, Calif.) and plates were incubated at 37° C., 5% CO2 for 24 hrs. Next, chemical library compounds at defined concentrations, were added using fully automated liquid handling system Caliper Life Sciences Staccato system with a Twister II robot and a Sciclone ALH3000 (Caliper Life Sciences, Alameda, Calif. USA) integrated with a V&P Scientific pin tool and plates were incubated at 37° C./5% CO2 for 10 hrs. Then, 20 μM of FCCP (Carbonyl cyanide 4-(trifluoromethoxy)phenylhydrazone, Sigma-Aldrich, C2920) in cell media was added to defined wells and plates were incubated at 37° C., 5% CO2 for another 14 hr. Cells were fixed with ice-cold 90% methanol (Fisher, 482332) for 20 min at −20° C., incubated with blocking buffer (10% Normal Goat Serum (NGS) (ThermoFisher, 50062Z), 0.5% BSA (ThermoFisher, BP1600), 0.2% Triton X-100 (ThermoFisher, T8787) at room temperature (RT) for 15 min, and incubated with anti-Miro1 solution (Sigma-Aldrich, HPA0101687) at 1:100 in blocking buffer O/N at 4° C. Samples were washed with lx PBS (ThermoFisher, 10010-049) using a Plate Washer multivalve (Bio-Tek, ELx405UV), incubated with goat anti-Rabbit IgG (H+L) Cross-Adsorbed, Alexa Fluor 488 (ThermoFisher, A11008) at 1:500 in blocking buffer at 25° C. for 2 hrs and washed again with lx PBS, finally 1.0 μg/mL DAPI (ThermoFisher, D1306) in 1×PBS was added and plates were sealed using PlateLoc (Velocity11, 01867.001). All liquids were dispensed using the Multidrop 384 (Titertek, 5840200) unless otherwise stated. Fluorescent signals in plates were automatically imaged with ImageXpress Micro (Molecular Devices, IXMicro) and data were analyzed with MetaXpress Analysis (Molecular Devices). The percent of Miro1 reduction was calculated as % Positive Cells for Miro1/Median=[(Positive Cells Miro Integrated Intensity/All Nuclear Miro Integrated Intensity)−Plate Median of this same calculation (Median % Positive Miro/Nuclear Miro in Plate Data)]/[Plate Median of this same calculation (Median % Positive Miro/Nuclear Miro in Plate Data)]. Positive cells are cells having Miro1 immunostaining. […] Negative value indicates a reduction in Miro. Positive value indicates an increase in Miro. The screening and data analysis were carried out together with Stanford University High-Throughput Bioscience Centers (HTBC).
Drugs from the NIH Clinical collection library were screened at a defined 10 μM concentration with 4 biological repeats for each drug (377 compounds). […] These compounds are ranked in the order of the degree of Miro1 reduction (Table 1A). 12 small molecules that reduced Miro1 protein levels in 3 out of 4 biological repeats were ranked in order of degree of Miro1 reduction. […] These hits were ranked in order of the degree of Miro1 reduction, with the six compounds found to reduce Miro1 protein levels by 20% or more shown (Table 1A). Moreover, an additional 12 small molecules reduced Miro1 protein levels in 3 out of 4 biological repeats (Table 1B). We next screened the Biomol FDA library with 5-fold doses (1.25-2.5-5-10-20 μM) and in duplicate. […] We ranked these 3 hits in the order of the degree of Miro1 reduction (Table 1A). Taken together, we identified 14 actives (2.5% primary hit rate) and 12 potential actives.

**Q.** `COC(=O)C1=C(C)NC(C)=C(C(=O)OC2CCCN(Cc3ccccc3)C2)C1c1cccc([N+](=O)[O-])c1` (stereo not drawn) [Benidipine HCl] was tested. Which “% Miro1 decrease in screen” value did it give?
**A.** The value was “A (Reduction of Miro levels by >30%)”.

**Q.** How did the “% Miro1 decrease in screen” value turn out when `Cn1nnc2c(C(N)=O)ncn2c1=O` [Temozolomide] was run?
**A.** The value was “A (Reduction of Miro levels by >30%)”.

**Q.** For `CNC(=O)Oc1ccc2c(c1)[C@]1(C)CCN(C)[C@@H]1N2C` [Physostigmine], which “% Miro1 decrease in screen” value is on record?
**A.** Its value is “B (Reduction of Miro levels by >20% and less than 30%)”.

**Q.** For `CN(C)CCC[C@@]1(c2ccc(F)cc2)OCc2cc(C#N)ccc21` [Escitalopram Oxalate], which “% Miro1 decrease in screen” value is on record?
**A.** Its value is “A (Reduction of Miro levels by >30%)”.

**Q.** How did the “% Miro1 decrease in screen” value turn out when `C[N+]1(C)CCC(OC(=O)C(O)(c2ccccc2)C2CCCC2)C1` (stereo not drawn) [Glycopyrrolate] was run?
**A.** The value was “B (Reduction of Miro levels by >20% and less than 30%)”.

**Q.** `COc1ccc(/C=C/C(=O)Nc2ccccc2C(=O)O)cc1OC` [Tranilast] was tested. Which “% Miro1 decrease in screen” value did it give?
**A.** The value was “B (Reduction of Miro levels by >20% and less than 30%)”.

same assay, conditions: Table 1B additional small molecules (3 out of 4 biological repeats); 10 μM tested; following FCCP treatment

**Q.** How did the “% Miro1 decrease in screen” value turn out when `CC(C(=O)O)c1ccc(-c2ccccc2)c(F)c1` (stereo not drawn) [Flurbiprofen] was run?
**A.** The value was “B (Reduction of Miro levels by >20% and less than 30%)”.

**Q.** How did the “% Miro1 decrease in screen” value turn out when `CC(C(=O)O)c1ccc(CC2CCCC2=O)cc1` (stereo not drawn) [Loxoprofen] was run?
**A.** The value was “B (Reduction of Miro levels by >20% and less than 30%)”.

**Q.** How did the “% Miro1 decrease in screen” value turn out when `C[C@H]1COc2c(C3(N)CC3)c(F)cc3c(=O)c(C(=O)O)cn1c23` [Pazufloxacin] was run?
**A.** Its value is “B (Reduction of Miro levels by >20% and less than 30%)”.

**Q.** `COc1ccc2[nH]c([S+]([O-])Cc3ncc(C)c(OC)c3C)nc2c1` (stereo not drawn) [Omeprazole] was tested. Which “% Miro1 decrease in screen” value did it give?
**A.** The value was “C (Reduction of Miro by >10% and less than 20%)”.
